These results are taken from patent US20240376097A1, “BCL-2 Inhibitor” (BeiGene Ltd., priority 2020, published 2024).

In data set [1] the target is recombinant human Bcl-2-G101V protein (Homo sapiens (Human), UniProt P10415, G101V). Nature of the data set: Bcl-2-G101V TR-FRET Assay. The data set is classed as binding. To be noted: Bcl-2 G101V mutant, TR-FRET; read-out: Biochemical assay (IC50, nM) Bcl-2 G101V. The method in brief: (§1)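 TR-FRET read at excitation 337 nm with emission at 490 nm and 520 nm. Inhibition of Bcl-2-G101V binding to its ligand across increasing compound concentrations was calculated from the 490/520 nm fluorescence ratio, and IC50 values came from four-parameter logistic fits.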
(In general: Time-resolved FRET reads energy transfer from a long-lived donor to a nearby acceptor.)

Data set [2] concerns recombinant human Bcl-2-G101V protein. Nature of the data set: Bcl-2-G101V TR-FRET Assay. The data set is classed as binding. The note with it: for Ratio of Bcl-2 G101V/WT: ratio of biochemical IC50 Bcl-2 G101V / Bcl-2 WT. Summed up:
as §1

The nature of data set [3]: Metabolic Stability Study, liver microsome incubation (human). The note with it: human liver microsomes 0.5 mg/mL, 1 μM compound, NADPH; for microsomal CLint at 1 μM: read-out: CLint (μL × min^−1 × mg^−1) Human. The data set is classed as in vitro ADME. The method in brief:
(§2)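 Test compounds (1 μM) incubated at 37° C with 0.5 mg/mL liver microsomes plus NADPH regenerating system; samples quenched at 0, 30 and 60 min. Parent loss measured by LC-MS/MS, giving CLint and T1/2, with CLint normalised to microsomal protein concentration.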

Data set [4] deals with Recombinant human Bcl-2 protein (Homo sapiens (Human), UniProt P10415). Nature of the data set: Bcl-2 TR-FRET Assay. The class given is binding. The method in brief:
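TR-FRET read (337 nm excitation, 520/490 nm emission) after 1 h with 0.5 nM FITC-labeled Bak peptide and Tb-cryptate anti-6His antibody. Bcl-2 at 0.05 nM had been pre-incubated 0.5 h with compound. IC50 fitted by four-parameter logistic equation.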

Data set [5] deals with RS4;11 (BCL-2 dependent acute lymphoblastic leukemia cell line). Nature of the data set: RS4;11 Cell Proliferation Assay. To be noted: Homo sapiens, RS4;11 cells, read-out: Cellular proliferation assay (IC50, nM) RS4. The class given is cell-based. Summed up:
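Viability measured via CellTiter-Glo luminescence after a 48 h, 37 °C exposure to compounds (10 points, highest 1 μM). Seeding was 50,000 RS4;11 cells per well in 10% FBS RPMI-1640; IC50 given as mean.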

Data set [6] addresses recombinant human Bcl-2 D103Y protein (Homo sapiens (Human), UniProt P10415, D103Y). Put plainly: Bcl-2-D103Y Biochemical Assay (TR-FRET). The data set is classed as binding. The note with it: for IC50: TR-FRET, FITC labeled Bak peptide; for Ratio of Bcl-2 D103Y/Bcl-2 WT: ratio of IC50. The method in brief: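 Compounds titrated against the Bcl-2 D103Y–ligand interaction; inhibition derived from the TR-FRET emission ratio 490 nm/520 nm after 337 nm excitation. Four-parameter logistic fitting gave IC50.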

The nature of data set [7]: Metabolic Stability Study, liver microsome incubation (mouse). The class given is in vitro ADME. To be noted: mouse liver microsomes 0.5 mg/mL, 1 μM compound, NADPH; for half-life at 1 μM: NA^# = very stable, beyond the detection limits, read-out: T1/2 (min) mouse; for microsomal CLint at 1 μM: read-out: CLint (μL × min^−1 × mg^−1) mouse. The method in brief:
as §2

The mark [8] stands for this setting: Bcl-2 wild type, TR-FRET, read-out: Biochemical assay (IC50, nM) Bcl-2 WT.
Where [9] appears, read: wild type Bcl-2, unit inferred, read-out: Bcl-2 WT.

Read-outs that look alike come from different tables or passages of the source.

Take `COc1cc(CN2CCN(C3CC4(C3)CN(c3ccc(C(=O)NS(=O)(=O)c5ccc(NC[C@H]6CC[C@](C)(O)CC6)c([N+](=O)[O-])c5)c(Oc5cnc6[nH]cc(F)c6c5)c3)C4)[C@H](c3ccccc3C(C)C)C2)cc2cc(C)oc12` [Example 338, 2-((3-fluoro-1H-pyrrolo[2,3-b]pyridin-5-yl)oxy)-N-((4-((((1r,4r)-4-hydroxy-4-methylcyclohexyl)methyl)amino)-3-nitrophenyl)sulfonyl)-4-(6-((R)-2-(2-isopropylphenyl)-4-((7-methoxy-2-methylbenzofuran-5-yl)methyl)piperazin-1-yl)-2-azaspiro[3.3]heptan-2-yl)benzamide]: the IC50 in data set [1] was 1.4 nM; in data set [4] (setting [8]), 0.59 nM; in data set [4] (setting [9]), 0.59 nM; in data set [5], 0.11 nM; in data set [6] it was 1 nM. In addition, the “ratio of IC50 of Bcl-2 G101V/Bcl-2 wt, compared with Example F132b in WO2019210828 and ABT-199 (venetoclax)” value in data set [2] (comparison in words) was “much lower”. In data set [2], the “Ratio of Bcl-2 G101V/WT” value was found to be 2.3. The half-life at 1 μM in data set [3] (NA^# = very stable, beyond the detection limits, read-out: T1/2 (min) Human) is 659 min; in data set [7], 538 min. In addition, the microsomal CLint at 1 μM in data set [3] is 2.1 µL/min/mg; in data set [7] it was 2.6 µL/min/mg. Also, the “Ratio of Bcl-2 D103Y/Bcl-2 WT” value in data set [6] was found to be 1.7.
With `COc1cc(CN2CCN(C3CC4(C3)CN(c3ccc(C(=O)NS(=O)(=O)c5ccc(NC[C@H]6CC[C@](C)(O)CC6)c([N+](=O)[O-])c5)c(Oc5cnc6[nH]cc(F)c6c5)c3)C4)[C@H](c3ccccc3C(C)C)C2)ccc1N1CCOCC1` [Example 361, 2-((3-fluoro-1H-pyrrolo[2,3-b]pyridin-5-yl)oxy)-N-((4-((((1r,4r)-4-hydroxy-4-methylcyclohexyl)methyl)amino)-3-nitrophenyl)sulfonyl)-4-(6-((R)-2-(2-isopropylphenyl)-4-(3-methoxy-4-morpholinobenzyl)piperazin-1-yl)-2-azaspiro[3.3]heptan-2-yl) benzamide], the IC50 in data set [1] turned out to be 0.16 nM; in data set [4] (setting [8]) it was 0.051 nM; in data set [4] (setting [9]) it was 0.048 nM; in data set [5] it was 0.09 nM; in data set [6] it was 0.079 nM. Further, the “Ratio of Bcl-2 G101V/WT” value in data set [2] worked out at 3.1. The microsomal CLint at 1 μM in data set [3] was less than 1 µL/min/mg; in data set [7], 5.1 µL/min/mg. For the same compound, the “Ratio of Bcl-2 D103Y/Bcl-2 WT” value in data set [6] came to 1.6. The half-life at 1 μM in data set [7] turned out to be 273 min.
